From ChEMBL document CHEMBL1131884, “Dicationic 2-fluorenonylcarbapenems: potent anti-MRS agents with improved solubility and pharmacokinetic properties” (Bioorg Med Chem Lett, 1999) come the findings set out here.

Structures are written as SMILES.

One may read the MIC50 as the lowest concentration that inhibits either 50% of growth or 50% of the strains tested, depending on the study. A word on the MIC90: it is the lowest concentration that inhibits either 90% of growth or 90% of the strains tested, depending on the study. The term IC50 denotes the point on the concentration scale where inhibition reaches its midpoint.

The first assay has as its system Staphylococcus aureus. In words: Antibacterial activity against methicillin-resistant Staphylococcus aureus (MRSA). It is filed as functional.
As for `C[C@@H](O)[C@H]1C(=O)N2C(C(=O)O)=C(c3ccc4c(c3)-c3ccc(C[N+]56CC[N+](CCO)(CC5)CC6)cc3C4=O)[C@H](C)[C@H]12.[Cl-].[Cl-]`, the MIC50 came out at 4 µg/mL and the MIC90 worked out at 4 µg/mL.

On to `COc1ccccc1NC(=O)C[N+]12CC[N+](Cc3ccc4c(c3)C(=O)c3ccc(C5=C(C(=O)O)N6C(=O)[C@H]([C@@H](C)O)[C@H]6[C@H]5C)cc3-4)(CC1)CC2.[Cl-].[Cl-]`, for which the MIC50 came to 1 µg/mL and the MIC90 amounted to 2 µg/mL.

Take `C[C@@H](O)[C@H]1C(=O)N2C(C(=O)O)=C(c3ccc4c(c3)-c3ccc(C[N+]56CC[N+](CC(=O)Nc7ccc(CCO)cc7)(CC5)CC6)cc3C4=O)[C@H](C)[C@H]12.[Cl-].[Cl-]`: the MIC50 stood at 1 µg/mL and the MIC90 came out at 2 µg/mL.

Consider `C[C@@H](O)[C@H]1C(=O)N2C(C(=O)O)=C(c3ccc4c(c3)-c3ccc(C[N+]56CC[N+](CC(=O)NCc7ccccc7)(CC5)CC6)cc3C4=O)[C@H](C)[C@H]12.[Cl-].[Cl-]`, for which the MIC50 amounted to 1 µg/mL and the MIC90 was found to be 2 µg/mL.

`C[C@@H](O)[C@H]1C(=O)N2C(C(=O)O)=C(c3ccc4c(c3)-c3ccc(C[N+]56CC[N+](CC(=O)Nc7ccccc7C#N)(CC5)CC6)cc3C4=O)[C@H](C)[C@H]12.[Cl-].[Cl-]`: the MIC50 is 1 µg/mL and the MIC90 came out at 2 µg/mL.

Turning to `C[C@@H](O)[C@H]1C(=O)N2C(C(=O)O)=C(c3ccc4c(c3)-c3ccc(C[N+]56CC[N+](CCO)(CC5)CC6)cc3C4=O)C[C@H]12.[Cl-].[Cl-]`, the MIC50 was found to be 2 µg/mL and the MIC90 came to 4 µg/mL.

The compound `C[C@@H](O)[C@H]1C(=O)N2C(C(=O)O)=C(c3ccc4c(c3)-c3ccc(C[N+]56CC[N+](CC(=O)Nc7ccc(C(N)=O)cc7)(CC5)CC6)cc3C4=O)[C@H](C)[C@H]12.[Cl-].[Cl-]` yielded an MIC50 of 0.25 µg/mL and an MIC90 of 0.5 µg/mL.

For `CCC[N+]12CC[N+](Cc3ccc4c(c3)C(=O)c3ccc(C5=C(C(=O)O)N6C(=O)[C@H]([C@@H](C)O)[C@H]6[C@H]5C)cc3-4)(CC1)CC2.[Cl-].[Cl-]`, the MIC50 came to 4 µg/mL and the MIC90 is 4 µg/mL.

In the case of `CC(C)NC(=O)C[N+]12CC[N+](Cc3ccc4c(c3)C(=O)c3ccc(C5=C(C(=O)O)N6C(=O)[C@H]([C@@H](C)O)[C@H]6[C@H]5C)cc3-4)(CC1)CC2.[Cl-].[Cl-]`, the MIC50 was determined as 2 µg/mL and the MIC90 was 4 µg/mL.

As for `C[C@@H](O)[C@H]1C(=O)N2C(C(=O)O)=C(c3ccc4c(c3)-c3ccc(C[N+]56CC[N+](CC(=O)Nc7ccccc7)(CC5)CC6)cc3C4=O)C[C@H]12.[Cl-].[Cl-]`, the MIC50 turned out to be 0.5 µg/mL and the MIC90 was 2 µg/mL.

In turn, `C[C@@H](O)[C@H]1C(=O)N2C(C(=O)O)=C(c3ccc4c(c3)-c3ccc(C[N+]56CC[N+](CC(=O)Nc7ccncc7)(CC5)CC6)cc3C4=O)[C@H](C)[C@H]12.[Cl-].[Cl-]` yielded an MIC50 of 1 µg/mL and an MIC90 of 2 µg/mL.

Compound `CCCNC(=O)C[N+]12CC[N+](Cc3ccc4c(c3)C(=O)c3ccc(C5=C(C(=O)O)N6C(=O)[C@H]([C@@H](C)O)[C@H]6[C@H]5C)cc3-4)(CC1)CC2.[Cl-].[Cl-]` had an MIC50 of 2 µg/mL and an MIC90 of 4 µg/mL.

The test system of another assay is Staphylococcus sp. In words: Antibacterial activity against methicillin-resistant coagulase negative Staphylococci (MRCNS). It is filed as functional.
Regarding `C[C@@H](O)[C@H]1C(=O)N2C(C(=O)O)=C(c3ccc4c(c3)-c3ccc(C[N+]56CC[N+](CCO)(CC5)CC6)cc3C4=O)[C@H](C)[C@H]12.[Cl-].[Cl-]`, the MIC50 is 4 µg/mL and the MIC90 was found to be 8 µg/mL.

`COc1ccccc1NC(=O)C[N+]12CC[N+](Cc3ccc4c(c3)C(=O)c3ccc(C5=C(C(=O)O)N6C(=O)[C@H]([C@@H](C)O)[C@H]6[C@H]5C)cc3-4)(CC1)CC2.[Cl-].[Cl-]`: the MIC50 is 2 µg/mL and the MIC90 worked out at 4 µg/mL.

Consider `C[C@@H](O)[C@H]1C(=O)N2C(C(=O)O)=C(c3ccc4c(c3)-c3ccc(C[N+]56CC[N+](CC(=O)Nc7ccc(CCO)cc7)(CC5)CC6)cc3C4=O)[C@H](C)[C@H]12.[Cl-].[Cl-]`, for which the MIC50 was 2 µg/mL and the MIC90 worked out at 4 µg/mL.

Consider `C[C@@H](O)[C@H]1C(=O)N2C(C(=O)O)=C(c3ccc4c(c3)-c3ccc(C[N+]56CC[N+](CC(=O)NCc7ccccc7)(CC5)CC6)cc3C4=O)[C@H](C)[C@H]12.[Cl-].[Cl-]`, for which the MIC50 worked out at 1 µg/mL and the MIC90 turned out to be 4 µg/mL.

Turning to `C[C@@H](O)[C@H]1C(=O)N2C(C(=O)O)=C(c3ccc4c(c3)-c3ccc(C[N+]56CC[N+](CC(=O)Nc7ccccc7C#N)(CC5)CC6)cc3C4=O)[C@H](C)[C@H]12.[Cl-].[Cl-]`, the MIC50 is 2 µg/mL and the MIC90 was found to be 4 µg/mL.

Compound `C[C@@H](O)[C@H]1C(=O)N2C(C(=O)O)=C(c3ccc4c(c3)-c3ccc(C[N+]56CC[N+](CCO)(CC5)CC6)cc3C4=O)C[C@H]12.[Cl-].[Cl-]` yielded an MIC50 of 2 µg/mL and an MIC90 of 4 µg/mL.

Regarding `C[C@@H](O)[C@H]1C(=O)N2C(C(=O)O)=C(c3ccc4c(c3)-c3ccc(C[N+]56CC[N+](CC(=O)Nc7ccc(C(N)=O)cc7)(CC5)CC6)cc3C4=O)[C@H](C)[C@H]12.[Cl-].[Cl-]`, the MIC50 was 0.5 µg/mL and the MIC90 was determined as 2 µg/mL.

With `CCC[N+]12CC[N+](Cc3ccc4c(c3)C(=O)c3ccc(C5=C(C(=O)O)N6C(=O)[C@H]([C@@H](C)O)[C@H]6[C@H]5C)cc3-4)(CC1)CC2.[Cl-].[Cl-]`, the MIC50 came out at 4 µg/mL and the MIC90 was determined as 8 µg/mL.

With `CC(C)NC(=O)C[N+]12CC[N+](Cc3ccc4c(c3)C(=O)c3ccc(C5=C(C(=O)O)N6C(=O)[C@H]([C@@H](C)O)[C@H]6[C@H]5C)cc3-4)(CC1)CC2.[Cl-].[Cl-]`, the MIC50 came out at 4 µg/mL and the MIC90 was 8 µg/mL.

Turning to `C[C@@H](O)[C@H]1C(=O)N2C(C(=O)O)=C(c3ccc4c(c3)-c3ccc(C[N+]56CC[N+](CC(=O)Nc7ccccc7)(CC5)CC6)cc3C4=O)C[C@H]12.[Cl-].[Cl-]`, the MIC50 amounted to 1 µg/mL and the MIC90 turned out to be 1 µg/mL.

With `C[C@@H](O)[C@H]1C(=O)N2C(C(=O)O)=C(c3ccc4c(c3)-c3ccc(C[N+]56CC[N+](CC(=O)Nc7ccncc7)(CC5)CC6)cc3C4=O)[C@H](C)[C@H]12.[Cl-].[Cl-]`, the MIC50 stood at 2 µg/mL and the MIC90 was 4 µg/mL.

Consider `CCCNC(=O)C[N+]12CC[N+](Cc3ccc4c(c3)C(=O)c3ccc(C5=C(C(=O)O)N6C(=O)[C@H]([C@@H](C)O)[C@H]6[C@H]5C)cc3-4)(CC1)CC2.[Cl-].[Cl-]`, for which the MIC50 was determined as 4 µg/mL and the MIC90 was 8 µg/mL.

Another assay deals with T1, MecA (Staphylococcus aureus, UniProt Q7DHH4).
T1 sequence (Q7DHH4 whole entry): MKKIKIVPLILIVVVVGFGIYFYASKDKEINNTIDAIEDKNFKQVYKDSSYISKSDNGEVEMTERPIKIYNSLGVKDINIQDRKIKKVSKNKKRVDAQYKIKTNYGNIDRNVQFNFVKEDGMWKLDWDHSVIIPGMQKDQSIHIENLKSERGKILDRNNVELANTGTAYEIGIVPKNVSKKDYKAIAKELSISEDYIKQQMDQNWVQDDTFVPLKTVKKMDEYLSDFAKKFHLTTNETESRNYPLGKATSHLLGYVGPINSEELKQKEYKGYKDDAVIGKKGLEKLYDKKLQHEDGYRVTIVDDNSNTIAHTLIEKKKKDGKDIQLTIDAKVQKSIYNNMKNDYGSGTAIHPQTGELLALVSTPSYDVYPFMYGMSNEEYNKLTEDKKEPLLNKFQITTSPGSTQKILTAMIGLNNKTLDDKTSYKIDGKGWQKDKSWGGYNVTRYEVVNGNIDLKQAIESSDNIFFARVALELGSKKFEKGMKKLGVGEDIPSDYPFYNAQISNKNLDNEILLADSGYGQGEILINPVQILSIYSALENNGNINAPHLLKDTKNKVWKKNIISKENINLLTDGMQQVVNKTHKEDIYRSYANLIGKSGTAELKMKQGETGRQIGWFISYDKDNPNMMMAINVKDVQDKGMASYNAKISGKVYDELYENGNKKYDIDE
In words: Binding affinity against PBP2a receptor by competition analysis with [3H]benzylpenicillin using cell membrane fractions from the MRSA COL strain.
In turn, `C[C@@H](O)[C@H]1C(=O)N2C(C(=O)O)=C(c3ccc4c(c3)-c3ccc(C[N+]56CC[N+](CCO)(CC5)CC6)cc3C4=O)[C@H](C)[C@H]12.[Cl-].[Cl-]` showed a 50% inhibitory concentration (IC50) of 1030 nM. That is a single-digit micromolar value.

The compound `COc1ccccc1NC(=O)C[N+]12CC[N+](Cc3ccc4c(c3)C(=O)c3ccc(C5=C(C(=O)O)N6C(=O)[C@H]([C@@H](C)O)[C@H]6[C@H]5C)cc3-4)(CC1)CC2.[Cl-].[Cl-]` had an IC50 of 867 nM.

As to `C[C@@H](O)[C@H]1C(=O)N2C(C(=O)O)=C(c3ccc4c(c3)-c3ccc(C[N+]56CC[N+](CC(=O)Nc7ccc(CCO)cc7)(CC5)CC6)cc3C4=O)[C@H](C)[C@H]12.[Cl-].[Cl-]`, the IC50 was 1310 nM.

On to `C[C@@H](O)[C@H]1C(=O)N2C(C(=O)O)=C(c3ccc4c(c3)-c3ccc(C[N+]56CC[N+](CC(=O)NCc7ccccc7)(CC5)CC6)cc3C4=O)[C@H](C)[C@H]12.[Cl-].[Cl-]`, for which the IC50 was 1320 nM.

The compound `C[C@@H](O)[C@H]1C(=O)N2C(C(=O)O)=C(c3ccc4c(c3)-c3ccc(C[N+]56CC[N+](CC(=O)Nc7ccccc7C#N)(CC5)CC6)cc3C4=O)[C@H](C)[C@H]12.[Cl-].[Cl-]` showed a concentration for half-maximal inhibition (IC50) of 1100 nM.

As for `C[C@@H](O)[C@H]1C(=O)N2C(C(=O)O)=C(c3ccc4c(c3)-c3ccc(C[N+]56CC[N+](CCO)(CC5)CC6)cc3C4=O)C[C@H]12.[Cl-].[Cl-]`, the half-maximal inhibitory concentration (IC50) was 276 nM.

With `C[C@@H](O)[C@H]1C(=O)N2C(C(=O)O)=C(c3ccc4c(c3)-c3ccc(C[N+]56CC[N+](CC(=O)Nc7ccc(C(N)=O)cc7)(CC5)CC6)cc3C4=O)[C@H](C)[C@H]12.[Cl-].[Cl-]`, the concentration for half-maximal inhibition (IC50) is 1970 nM.

Compound `CCC[N+]12CC[N+](Cc3ccc4c(c3)C(=O)c3ccc(C5=C(C(=O)O)N6C(=O)[C@H]([C@@H](C)O)[C@H]6[C@H]5C)cc3-4)(CC1)CC2.[Cl-].[Cl-]` gave an IC50 of 907 nM.

In turn, `CC(C)NC(=O)C[N+]12CC[N+](Cc3ccc4c(c3)C(=O)c3ccc(C5=C(C(=O)O)N6C(=O)[C@H]([C@@H](C)O)[C@H]6[C@H]5C)cc3-4)(CC1)CC2.[Cl-].[Cl-]` had a half-maximal inhibitory concentration (IC50) of 1240 nM.

`C[C@@H](O)[C@H]1C(=O)N2C(C(=O)O)=C(c3ccc4c(c3)-c3ccc(C[N+]56CC[N+](CC(=O)Nc7ccccc7)(CC5)CC6)cc3C4=O)C[C@H]12.[Cl-].[Cl-]`: the concentration for half-maximal inhibition (IC50) is 468 nM.

The compound `C[C@@H](O)[C@H]1C(=O)N2C(C(=O)O)=C(c3ccc4c(c3)-c3ccc(C[N+]56CC[N+](CC(=O)Nc7ccncc7)(CC5)CC6)cc3C4=O)[C@H](C)[C@H]12.[Cl-].[Cl-]` gave a half-inhibitory concentration (IC50) of 1190 nM.

`CCCNC(=O)C[N+]12CC[N+](Cc3ccc4c(c3)C(=O)c3ccc(C5=C(C(=O)O)N6C(=O)[C@H]([C@@H](C)O)[C@H]6[C@H]5C)cc3-4)(CC1)CC2.[Cl-].[Cl-]`: the half-maximal inhibitory concentration (IC50) is 1230 nM.
